Where a name gives a salt, the structure may show the parent alone.
Assays:
FU-EPS-1 = tested on: FU-EPS-1
Method: (§1)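 60-agent targeted drug screens (Drug Screen V3 on epithelioid sarcoma cultures PCB490-3/4/5, PCB495, EPS cell lines ESX, VA-ES-BJ, FU-EPS-1 and SkMc myoblasts; PPTI screen v2.1 on human UPS PCB197 and canine UPS S1-12). 384-well plates, 72 h, CellTiter-Glo viability; IC50 by Hill curve fit. 10000 nM = no IC50 achieved (top reported value).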

PCB-495 = tested on: PCB-495 (human epithelioid sarcoma primary culture)
Method: as §1

SkMc = tested on: SkMc
Method: as §1

ESX = tested on: ESX
Method: as §1

s1-12 = tested on: s1-12 (canine undifferentiated pleomorphic sarcoma culture)
Method: as §1

pcb-00197 = tested on: pcb-00197 (human undifferentiated pleomorphic sarcoma culture)
Method: as §1

VA-ES-BJ = tested on: VA-ES-BJ
Method: as §1

PCB-490-5 = tested on: PCB-490-5 (human epithelioid sarcoma primary culture)
Method: as §1

PCB-490-4 = tested on: PCB-490-4 (human epithelioid sarcoma primary culture)
Method: as §1

PCB-490-3 = tested on: PCB-490-3 (human epithelioid sarcoma primary culture)
Method: as §1

Row | Structure (SMILES) | IC50 cell viability (FU-EPS-1) [µM] | IC50 cell viability (PCB-495) [µM] | IC50 cell viability (SkMc) [µM] | IC50 cell viability (ESX) [µM] | IC50 cell viability (s1-12) [µM] | IC50 cell viability (pcb-00197) [µM] | IC50 cell viability (VA-ES-BJ) [µM] | IC50 cell viability (PCB-490-5) [µM] | IC50 cell viability (PCB-490-4) [µM] | IC50 cell viability (PCB-490-3) [µM]
1 | C[C@]1(O)C[C@@H](c2nc(-c3ccc4ccc(-c5ccccc5)nc4c3)c3c(N)nccn32)C1 [OSI-906] | > 10 | > 10 | > 10 | 0.02 | 1.07 | > 10 | > 10 | > 10 | > 10 | > 10
2 | CCc1cnn2c(NCc3ccc[n+]([O-])c3)cc(N3CCCC[C@H]3CCO)nc12 [Dinaciclib] | > 10 | 0.01 | > 10 | 0.01 | 0.01 | > 10 | 0.01 | > 10 | 0.1 | > 10
3 | COc1cc2nc(N3CCCN(C)CC3)nc(NC3CCN(Cc4ccccc4)CC3)c2cc1OC | 1.01 | 1.38 | 0.15 | 0.2 | 1.72 | 6.05 | 6.57 | 6.69 | 1.82 | 3.14
4 | Nc1ccccc1NC(=O)c1ccc(CNC(=O)OCc2cccnc2)cc1 [Entinostat] | 2.69 | > 10 | > 10 | > 10 | 0.92 | > 10 | 1.18 | > 10 | > 10 | > 10
5 | Cc1cc(Nc2cc(N3CCN(C)CC3)nc(Sc3ccc(NC(=O)C4CC4)cc3)n2)n[nH]1 [Tozasertib] | > 10 | > 10 | 2.62 | > 10 | – | – | > 10 | > 10 | 3.33 | > 10
6 | CC(C)(C(=O)NCC(F)(F)C(F)(F)F)C(=O)N[C@@H]1C(=O)Nc2ccccc2-c2ccccc21 | > 10 | > 10 | 3.76 | > 10 | > 10 | > 10 | > 10 | > 10 | > 10 | > 10
7 | CCOc1cc(C(C)(C)C)ccc1C1=N[C@@](C)(c2ccc(Cl)cc2)[C@@](C)(c2ccc(Cl)cc2)N1C(=O)N1CCN(CCCS(C)(=O)=O)CC1 | > 10 | > 10 | > 10 | > 10 | > 10 | > 10 | > 10 | > 10 | > 10 | > 10
8 | C[C@@H](Oc1ccc2[nH]nc(/C=C/c3cnn(CCO)c3)c2c1)c1c(Cl)cncc1Cl | > 10 | 0.19 | > 10 | 4.52 | – | – | > 10 | 0.46 | 0.5 | 1.73
9 | O=c1ncccn1[C@@H]1O[C@H](CO)[C@@H](O)[C@H]1O [Zebularine] | > 10 | > 10 | > 10 | > 10 | – | – | > 10 | > 10 | > 10 | > 10
10 | C=CCn1c(=O)c2cnc(Nc3ccc(N4CCN(C)CC4)cc3)nc2n1-c1cccc(C(C)(C)O)n1 [MK-1775] | 1.01 | > 10 | 0.16 | 0.17 | – | – | 0.3 | > 10 | > 10 | > 10
11 | CO[C@@H]1[C@H](N(C)C(=O)c2ccccc2)C[C@H]2O[C@]1(C)n1c3ccccc3c3c4c(c5c6ccccc6n2c5c31)C(=O)NC4 [PKC412] | > 10 | 1.36 | > 10 | 6.4 | – | – | 1.8 | 1.73 | 1.25 | > 10
12 | Cn1cc(NC(=O)c2cc(NC(=O)CNC(=N)N)cn2C)cc1C(=O)NCCC(=N)N [Netropsin Dihydrochloride] | > 10 | 5.52 | > 10 | > 10 | – | – | > 10 | > 10 | > 10 | > 10
13 | COCC[n+]1c2c(n(Cc3cnccn3)c1C)C(=O)c1ccccc1C2=O [YM155] | 0.01 | 0.07 | 0.28 | 0.02 | – | – | 0.01 | 0.16 | 0.27 | 0.15
14 | CN(C(=O)c1ccc(F)cc1C(F)(F)F)C1CCN(c2nnc(-c3ccnn3C)c3ccccc23)CC1 | > 10 | > 10 | > 10 | > 10 | – | – | > 10 | > 10 | > 10 | > 10
15 | CN1CCC(CNc2ccc3ncc(-c4cccc(OC(F)(F)F)c4)n3n2)CC1 [SGI-1776] | 1.7 | 7.51 | 2.84 | 0.15 | – | – | 4.81 | 1.85 | 2.03 | 4.5
16 | Cc1[nH]c2ccccc2c1CCNCc1ccc(/C=C/C(=O)NO)cc1 [Panobinostat] | 0.15 | 0.23 | 0.18 | 0.12 | – | – | 0.02 | 0.11 | 0.17 | 0.53
17 | CNC(=O)CN1CCC(Oc2cc3c(Nc4cccc(Cl)c4F)ncnc3cc2OC)CC1 [AZD8931] | > 10 | > 10 | > 10 | 4.75 | – | – | > 10 | > 10 | > 10 | > 10
18 | Cc1ccc(Nc2nccc(N(C)c3ccc4c(C)n(C)nc4c3)n2)cc1S(N)(=O)=O [Pazopanib] | > 10 | > 10 | > 10 | > 10 | – | – | > 10 | > 10 | > 10 | > 10
19 | Cc1nc(Nc2ncc(C(=O)Nc3c(C)cccc3Cl)s2)cc(N2CCN(CCO)CC2)n1 [Dasatinib] | > 10 | > 10 | 0.05 | > 10 | – | – | > 10 | 0.39 | 0.17 | 1.27
20 | Cc1ccc(-c2cc(C(F)(F)F)nn2-c2ccc(S(N)(=O)=O)cc2)cc1 [Celecoxib] | > 10 | > 10 | > 10 | > 10 | – | – | > 10 | > 10 | > 10 | > 10
21 | O=C(O)CC[C@H](O)C(=O)O [L-a-Hydroxyglutaric acid] | > 10 | > 10 | > 10 | > 10 | – | – | > 10 | > 10 | > 10 | > 10
22 | CS(=O)(=O)c1cccc(CNc2nc(Nc3ccc4c(c3)CCC(=O)N4)ncc2C(F)(F)F)c1 | > 10 | > 10 | > 10 | > 10 | – | – | > 10 | > 10 | > 10 | > 10
23 | Cc1ccc(S(=O)(=O)/C=C/C#N)cc1 [BAY-11-7082] | > 10 | > 10 | > 10 | > 10 | – | – | 0.49 | 0.77 | 1.93 | > 10
24 | CC[C@@H]1C(=O)N(C)c2cnc(Nc3ccc(C(=O)N[C@H]4CC[C@H](N5CCN(CC6CC6)CC5)CC4)cc3OC)nc2N1C(C)C [Volasertib] | 0.35 | 6.54 | > 10 | 6.23 | – | – | 1.09 | > 10 | > 10 | > 10
25 | COc1ccc(C[C@@H](C)[C@@H](C)Cc2ccc(OC)c(OC)c2)cc1OC [EM1421] | > 10 | > 10 | > 10 | > 10 | – | – | > 10 | > 10 | > 10 | > 10
